According to US20230348779A1, “FLUORESCENT COMPOUND AND FLUORESCENTLY LABELED BIOLOGICAL SUBSTANCE USING THE SAME” (FUJIFILM Corporation, priority 2021, published 2023):
Values after ≈ are worked out from the molar mass of the structure shown.

Legend:
Format in all cases: physicochemical
[1] = Evaluation of light resistance; conditions: PBS pH 7.4, xenon lamp 22 mW/cm^2, exposure time until absorbance at absorption peak decreases by 20%
Method: The compound synthesized above was dissolved in a PBS solution (pH 7.4) so that the absorbance at the absorption peak wavelength was 0.095 to 0.105. In a state where this solution was exposed using a merry-go-round type light irradiator (xenon lamp UXL-500D-O manufactured by Ushio Inc., HA-50 filter, Y44 filter, exposure intensity: 22 mW/cm^2 (in terms of 500 nm)), the absorbance at the absorption peak wavelength of each compound was measured over time with a spectrometer (Agilent 8453, manufactured by Agilent Technologies, Inc.). The absorbance at the absorption peak wavelength before light exposure was set to 100% and the light exposure time until the absorbance at this absorption peak wavelength decreases by 20% (the absorbance at the absorption peak wavelength reaches 80%) was measured. The results were evaluated based on the following evaluation standards.
A high evaluation rank is highly preferable since stability is kept for a long time, and in the present test, it is preferable that the light resistance satisfies the evaluation rank “B” or higher from the viewpoint of practicality as the fluorescent compound.
—Evaluation Standards for Light Resistance— • A: 100 hours or more • B: 50 hours or more and less than 100 hours • C: 25 hours or more and less than 50 hours • D: 2 hours or more and less than 25 hours • E: Less than 2 hours • F: Not evaluable due to low water solubility

[2] = Evaluation of maximum molar absorption coefficient; conditions: PBS solution (pH 7.4)
Method: A PBS solution (pH 7.4) of the above compound was evaluated according to the method described in the following reference document. The unit of the maximum molar absorption coefficient in the following evaluation standard is mol^−1 Lcm^−1.
“TECH TIP #6 Extinction Coefficients” (a document from Thermo Scientific, Inc., available from https://assets.thermofisher.com/TFS-Assets/LSG/Application-Notes/TR0006-Extinction-coeffi cients.pdf)
Regarding the maximum molar absorption coefficient, a high evaluation rank is highly preferable since the maximum molar absorption coefficient is excellent, and in the present test, it is preferable that the maximum molar absorption coefficient satisfies the evaluation rank “C” or higher from the viewpoint of practicality as the fluorescent compound.
—Evaluation Standard for Maximum Molar Absorption Coefficient— • A: 100,000 or more • B: 50,000 or more and less than 100,000 • C: 10,000 or more and less than 50,000 • D: less than 10,000 • E: not evaluable due to low water solubility

[3] = Evaluation of fluorescence quantum yield; conditions: PBS solution (pH 7.4)
Method: A PBS solution (pH 7.4) of the above compound was evaluated according to the method described in the following reference document.
“A Guide to Recording Fluorescence Quantum Yields” (a HORIBA Scientific document, available from https://www.horiba.com/fileadmin/uploads/Scientific/Documents/Fluorescence/quantumyields trad.pdf)
Regarding the fluorescence quantum yield, a high evaluation rank is highly preferable since the fluorescence quantum yield is excellent, and in the present test, it is preferable that the fluorescence quantum yield satisfies the evaluation rank “C” or higher from the viewpoint of practicality as the fluorescent compound.
—Evaluation Standards for Fluorescence Quantum Yield— • A: 0.5 or more • B: 0.3 or more and less than 0.5 • C: 0.1 or more and less than 0.3 • D: less than 0.1 • E: not evaluable due to low water solubility

[4] = Evaluation of water solubility; conditions: PBS pH 7.4, 1% DMSO, 200 μM if completely dissolved, filtrate concentration by UHPLC; for solubility at 30 min: PBS pH 7.4 with 1% DMSO, aqueous buffer, kinetic from dmso stock
Method: 5 μL of a DMSO solution having a concentration of 20 mM of the above compound (hereinafter, referred to as a sample) and 495 μL of PBS having a pH of 7.4 were added and mixed in a 1.5 mL Eppendorf tube and stirred with a multi-shaker MS300 (product name, AS ONE Corporation) at 2,000 rpm for 30 minutes. The obtained mixed solution was allowed to be left for 60 minutes with light shielding and then subjected to centrifugal precipitation (12,000 rpm, 5 minutes). For the filtrate filtered using a filter having a pore diameter of […], the sample concentration was measured with Nexera UHPLC [product name, manufactured by Shimadzu Corporation, column: Shim-pack XR-ODSII] (the sample concentration is 200 μM in a case where the sample is completely dissolved) and evaluated based on the following evaluation standards.
Regarding the water solubility, a high evaluation rank is highly preferable since the hydrophilicity is high, and in the present test, it is preferable that the water solubility satisfies the evaluation rank “C” or higher from the viewpoint of practicality as the fluorescent compound.
—Evaluation Standards for Water Solubility— • A: 100 μM or more • B: 10 μM or more and less than 100 μM • C: 1 μM or more and less than 10 μM • D: Less than 1 μM, or water solubility is low and thus concentration cannot be measured.

Water solubility [4] | Compound | Light resistance [1] | Maximum molar absorption coefficient [2] | Fluorescence quantum yield [3] | solubility at 30 min [4] [µM] | Fluorescence quantum yield (comparison in words) [3]
– | C=C[Si]1(C)C2=CC(=[N+](C)C)C=CC2=C(c2ccc(C(=O)[O-])cc2F)c2ccc(N(C)C)cc21 (stereo not shown) [Compound (2)] | A (100 hours or more) | A (100,000 or more) | B (0.3 or more and less than 0.5) | 1 to 10 (≈ 0.459 to 4.59 µg/mL) | –
– | C=C[Si]1(C)C2=CC(=[N+](C)C)C=CC2=C(c2c(OC)cc(C(=O)[O-])cc2OC)c2ccc(N(C)C)cc21 (stereo not shown) [Compound (4)] | A (100 hours or more) | A (100,000 or more) | B (0.3 or more and less than 0.5) | 1 to 10 (≈ 0.501 to 5.01 µg/mL) | –
– | C=C[Si]1(C)C2=CC(=[N+](C)C)C=CC2=C(c2sc(C(=O)[O-])cc2C)c2ccc(N(C)C)cc21 (stereo not shown) [Compound (5)] | A (100 hours or more) | A (100,000 or more) | D (less than 0.1) | 1 to 10 (≈ 0.461 to 4.61 µg/mL) | –
– | C=C[Si]1(C)C2=CC(=[N+]3CCS(=O)(=O)CC3)C=CC2=C(c2c(F)cc(C(=O)[O-])cc2F)c2ccc(N3CCS(=O)(=O)CC3)cc21 (stereo not shown) [Compound (6)] | A (100 hours or more) | A (100,000 or more) | B (0.3 or more and less than 0.5) | 1 to 10 (≈ 0.657 to 6.57 µg/mL) | exhibits a better fluorescence quantum yield as compared with the compound (1)
– | C=C[Si]1(C)C2=C/C(=N/C)C=CC2=C(c2c(F)cc(C(=O)O)cc2F)c2ccc(NC)cc21 (stereo not shown) [Compound (7)] | A (100 hours or more) | A (100,000 or more) | B (0.3 or more and less than 0.5) | 1 to 10 (≈ 0.449 to 4.49 µg/mL) | –
– | C=C[Si]1(C)C2=C/C(=N/C)C=CC2=C(c2sc(C(=O)O)cc2C)c2ccc(NC)cc21 (stereo not shown) [Compound (8)] | A (100 hours or more) | B (50,000 or more and less than 100,000) | C (0.1 or more and less than 0.3) | 1 to 10 (≈ 0.433 to 4.33 µg/mL) | –
– | C=C[Si]1(C)C2=C/C(=N/C)C=CC2=C(c2c(F)cc(C(=O)NCCOCCOCCOCCOCCC(=O)O)cc2F)c2ccc(NC)cc21 (stereo not shown) [Compound (9)] | A (100 hours or more) | A (100,000 or more) | B (0.3 or more and less than 0.5) | 10 to 100 (≈ 6.96 to 69.6 µg/mL) | –
– | C=C[Si]1(C)C2=CC(=[N+]3CC(F)C3)C=CC2=C(c2c(OC)cc(C(=O)[O-])cc2OC)c2ccc(N3CC(F)C3)cc21 (stereo not shown) [Compound (13)] | – | B (50,000 or more and less than 100,000) | A (0.5 or more) | 1 to 10 (≈ 0.561 to 5.61 µg/mL) | –
– | C=C[Si]1(C)C2=C/C(=[N+]3\CCC(F)C3)C=CC2=C(c2c(OC)cc(C(=O)[O-])cc2OC)c2ccc(N3CCC(F)C3)cc21 (stereo not shown) [Compound (14)] | – | B (50,000 or more and less than 100,000) | A (0.5 or more) | 1 to 10 (≈ 0.589 to 5.89 µg/mL) | –
– | C=C[Si]1(C)C2=C/C(=[N+](\C)CC(F)(F)F)C=CC2=C(c2c(OC)cc(C(=O)[O-])cc2OC)c2ccc(N(C)CC(F)(F)F)cc21 (stereo not shown) [Compound (15)] | – | C (10,000 or more and less than 50,000) | A (0.5 or more) | 1 to 10 (≈ 0.637 to 6.37 µg/mL) | exhibits a better fluorescence quantum yield as compared with the compound (4)
A (100 μM or more) | AlexaFluor647 | D (2 hours or more and less than 25 hours) | A (100,000 or more) | B (0.3 or more and less than 0.5) | – | –
